Values of other authors in patent US20050065134A1, “2-aklylidene-19-nor-vitamin D derivatives for the treatment of anorexia or low bone mass in females exhibiting aggressive athletic behavior” (Pfizer Inc, priority 2003, published 2005).
Like-named read-outs stand apart in the source and are kept apart here.

Test system: intestinal calcium transport
Settings: 7 days, rats

Compound | change in intestinal calcium transport (in words) (130 and 260 pmol/day) | change in intestinal calcium transport (in words) (260 pmol/day, only dose tested)
C=C1[C@H](O)CC(=C/C=C2\CCC[C@]3(C)[C@@H]([C@@H](C)CCCC(C)(C)O)CC[C@@H]23)C[C@H]1O [2-Methylene-19-Nor-20S-1,25-(OH)2D3, (20S)-1α,25-dihydroxy-2-methylene-19-nor-vitamin D3] | no significant change | –
C=C1[C@H](O)CC(=C/C=C2\CCC[C@]3(C)[C@@H]([C@H](C)CCCC(C)(C)O)CC[C@@H]23)C[C@H]1O [2-Methylene-19-Nor-1,25-(OH)2D3, 1α,25-dihydroxy-2-methylene-19-nor-vitamin D3] | no intestinal calcium transport activity | –
C=C1/C(=C\C=C2/CCC[C@]3(C)[C@@H]([C@H](C)CCCC(C)(C)O)CC[C@@H]23)C[C@@H](O)C[C@@H]1O [1,25-(OH)2D3, 1,25-dihydroxyvitamin D3, reference compound] | – | expected elevation of intestinal calcium transport
